Earlier results, collected in PMC7721897, “Metabolism and pharmacokinetics of a novel polyphenol fatty acid ester phloridzin docosahexaenoate in Balb/c female mice” (Scientific Reports, 2020).

Tested on: human plasma proteins
Conditions: ref Boulton et al.; cited from earlier work

O=c1c(O)c(-c2ccc(O)c(O)c2)oc2cc(O)cc(O)c12 [quercetin]
bound to human plasma proteins: 99.1%
freely available in the plasma: 0.9%
